# Results from patent publication US11213518B2, “Ligands of the mu, kappa, and delta opioid receptors” (The Board of Trustees of the Leland Stanford Junior …, priority 2017, dated 2022).
# Entries after “also recorded” stand apart in the source; their conditions may differ. Like-named read-outs stand apart in the source and are kept apart here.
# Assays:
# DOR-1 = molecular target: T1, DOR-1 (Mus musculus, UniProt P32300); test: Competition binding against 125I-IBNtxA, DOR-1 CHO membranes; conditions: vs 125I-IBNtxA (0.1 nM)
# T1 construct: expressed in transfected cells
# Protocol: (§1) FIGS. 7A-7C show competition assays at MOR-1, KOR-1 and DOR-1 against FMP4. Competition studies were performed with FMP4 against ^125I-IBNtxA (0.1 nM) in membranes from CHO cells stably expressing the indicated cloned mouse opioid receptors Each figure is a representative experiment that has been independently replicated at least three times. Error bars represent the SEM of triplicate samples. Error bars that cannot be seen are smaller than the size of the symbol.
# MOR-1 [1] = molecular target: T2, MOR-1 (Mus musculus, UniProt P42866); test: Screening of MOR-1 binders, single-dose inhibition of 125IBNtxA specific binding; set-up: expressed in transfected cells; host or cells: CHO cells; conditions: single dose 10 μM
# Source text: Each panel is a representative experiment that has been independently replicated at least three times.
# KOR-1 = molecular target: T3, KOR-1 (Mus musculus, UniProt P33534); test: Competition binding against 125I-IBNtxA, KOR-1 CHO membranes; conditions: vs 125I-IBNtxA (0.1 nM), cloned mouse receptor, ± SEM
# T3 construct: expressed in transfected cells
# Protocol: as §1
# MOR-1 [2] = molecular target: T2, MOR-1; test: Competition binding against 125I-IBNtxA, MOR-1 CHO membranes; set-up: expressed in transfected cells; conditions: vs 125I-IBNtxA (0.1 nM)
# MOR-1 [3] = molecular target: T2, MOR-1; test: [35S]-GTPγS assay in MOR-1 expressing CHO cells; type: biochemical; set-up: expressed in transfected cells; host or cells: CHO cells; conditions: for Functional character in [35S]GTPγS assay at MOR-1: MOR-1 expressing CHO cells, compared with full agonist DAMGO 100 nM
# Source text: Results are pooled from 3 independent replications and are expressed as mean±SEM.
# [4] = cloned mouse receptor, ± SEM, read-out: Binding Data-Ki MOR-1
# [5] = value in μM, read-out: Binding Data-Ki / affinity MOR-1 (μOR)
SMILES,"Ki (DOR-1; cloned mouse receptor, ± SEM) [µM]",inhibition at 10 µM (MOR-1 [1]) [%],Ki (KOR-1) [µM],Ki (MOR-1 [2]; [4]) [µM],Ki (MOR-1 [2]; [5]) [µM],Antagonism of GTPγS stimulation by 100 nM DAMGO (MOR-1 [3]; FMP4 at 30 μM),Functional character in [35S]GTPγS assay at MOR-1 (MOR-1 [3]),Functional character in [35S]GTPγS assay at MOR-1 (MOR-1 [3]; listed as FMP 4),"Stimulation of GTPγS binding (MOR-1 [3]; doses 1, 10 and 30 μM, ceiling effect, p<0.0001 vs control)",Ki (DOR-1; value in μM) [µM]
"Cc1ccccc1OCCCCCN1CCCCC1 [FMP1, 1-piperidino-5-(o-tolyloxy)pentane]",17.9 ± 7.61,≥ 30,7.39 ± 2.38,0.841 ± 0.242,< 10,–,–,–,–,–
"Cc1ccccc1OCCCCCCc1c(C)n[nH]c1C [FMP4, 3,5-dimethyl-4-[6-(o-tolyloxy)hexyl]-1H-pyrazole]",8.14 ± 1.4,≥ 30,2.5 ± 0.523,3.22 ± 0.153,3.2,antagonized the GTPγS stimulation of 100 nM DAMGO,weak partial agonism; also recorded: partial agonist,weak MOR-1 partial agonist,stimulates GTPγS binding,–
COc1cccc(OCCCCCN2CCCCC2)c1 [FMP6],–,–,6.94 ± 1.97,–,> 30,–,–,–,–,> 30
"Cc1ccc(OCCCCCCc2c(C)n[nH]c2C)cc1 [FMP16, 3,5-dimethyl-4-[6-(p-tolyloxy)hexyl]-1H-pyrazole]",9.06 ± 0.566,≥ 30,4.92 ± 2.24,1.75 ± 0.492,< 10,–,–,–,–,–
Cc1cccc(C)c1OCCCCCN1CCN(C)CC1 [FMP21],–,–,5.5 ± 4.19,–,> 30,–,–,–,–,> 30
Cc1ccccc1OCCCCCN1CCOCC1 [FMP30],12.8 ± 0.856,–,6.01 ± 2.16,11.3 ± 2.26,–,–,–,–,–,–
